Results on 25 compounds are retold here after patent US20060128695A1, “Cyclic nucleotide phosphodiesterase inhibitors, preparation and uses” (NEURO3D, priority 2002, published 2006).

Read-outs that look alike come from different tables or passages of the source.

In one experiment the target is T1, PDE2 (Bos taurus, UniProt P14099).
T1 construct: PDE2 was prepared from bovine endothelial cells by the same methods; endogenous in cells; host or cells: bovine endothelial cells
T1 sequence (P14099 1-921): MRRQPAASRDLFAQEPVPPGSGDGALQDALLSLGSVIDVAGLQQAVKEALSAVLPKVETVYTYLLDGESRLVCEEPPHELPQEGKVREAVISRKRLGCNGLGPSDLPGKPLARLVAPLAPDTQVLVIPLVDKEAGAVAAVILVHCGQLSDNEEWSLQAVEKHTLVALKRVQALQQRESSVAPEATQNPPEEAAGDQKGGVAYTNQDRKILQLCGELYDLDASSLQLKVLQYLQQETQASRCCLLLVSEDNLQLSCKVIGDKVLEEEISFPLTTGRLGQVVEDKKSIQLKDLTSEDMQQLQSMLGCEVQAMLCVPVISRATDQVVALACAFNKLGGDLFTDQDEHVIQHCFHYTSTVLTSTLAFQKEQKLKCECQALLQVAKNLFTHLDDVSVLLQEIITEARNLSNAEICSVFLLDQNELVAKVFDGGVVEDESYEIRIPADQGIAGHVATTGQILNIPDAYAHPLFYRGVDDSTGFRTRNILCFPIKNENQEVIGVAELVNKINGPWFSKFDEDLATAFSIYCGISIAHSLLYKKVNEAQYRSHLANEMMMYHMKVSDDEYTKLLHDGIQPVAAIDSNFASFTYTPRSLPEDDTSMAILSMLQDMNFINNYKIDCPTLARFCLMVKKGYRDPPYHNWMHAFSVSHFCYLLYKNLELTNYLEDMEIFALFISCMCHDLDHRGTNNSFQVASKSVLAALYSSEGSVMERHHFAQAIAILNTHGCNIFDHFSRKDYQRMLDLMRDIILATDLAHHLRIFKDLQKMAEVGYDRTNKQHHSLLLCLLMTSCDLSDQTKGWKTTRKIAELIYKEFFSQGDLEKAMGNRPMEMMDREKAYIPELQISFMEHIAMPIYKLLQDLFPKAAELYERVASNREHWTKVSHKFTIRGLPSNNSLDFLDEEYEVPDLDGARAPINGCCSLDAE
Kind of experiment: Inhibition of PDE2, radioenzymatic phosphodiesterase assay. The settings on record: for inhibition at 10 µM: read-out: PDE2 percentage inhibition at 10 μM. The experiment is classed as biochemical, bovine.

Another experiment concerns PDE4. Kind of experiment: Selectivity: inhibition of PDE4, radioenzymatic phosphodiesterase assay. The experiment is classed as biochemical, bovine. To be noted: vascular smooth muscle; for PDE4 percentage inhibition at 10 μM: 10 μM test compound; for IC50: cells without % sign. How it is done: A 3 g segment of bovine aortic media cut into pieces with scissors was homogenized with an ultra-turrax then a potter glass/glass homogenizer in 7 volumes by weight of buffer A containing a protease inhibitor cocktail (20 mM Tris-HCl, 0.25 M saccharose, 2 mM magnesium acetate, 1 mM dithiothreitol, 5 mM EGTA, 2000 U/ml aprotinin, 10 mg/l leupeptin and 10 mg/l soya trypsic inhibitor). The homogenizate was centrifuged at 105,000 g for 1 hour. The supernatant was loaded on a DEAE-Sephacel column (15 x 1.6 cm) pre-equilibrated with buffer B (buffer A without the saccharose, EGTA and protease inhibitors). The column was washed until there was no detectable absorption at 280 nm, then eluted with a linear gradient of NaCl (0-0.5 M) in buffer B. 3-ml fractions were collected and enzyme activity was determined under the conditions described hereinbelow to localize the different enzymes PDE1, PDE3, PDE4 and PDE5 which were aliquoted and frozen at −80° C. (Lugnier et al., Biochem. Phamacol., 1986, 35: 1746-1751). PDE2 was prepared from bovine endothelial cells by the same methods (Lugnier and Schini, Biochem. Pharmacol., 1990, 39: 75-84).
Cyclic nucleotide phosphodiesterase activity was determined by a radioenzymatic method using tritium-labelled cyclic GMP or AMP (1 μM) as substrate (Lugnier et al., 1986). ^3H-labelled adenosine or guanosine monophosphate formed by hydrolysis of the radiolabelled cyclic nucleotide was then converted to ^3H-labelled adenosine or guanosine in a second reaction with […] in excess. The nucleoside formed was separated from the nucleotides by anion exchange chromatography. Nucleoside radioactivity was determined by liquid scintillation counting. Enzymatic incubations were carried out under conditions allowing no more than 15% hydrolysis of the substrate; each point was performed in duplicate.
The activity of the compounds was evaluated on other phosphodiesterase isoforms, particularly basal state or calmodulin-activated PDEl from vascular smooth muscle, PDE3, PDE4 and PDE5 from vascular smooth muscle.
The results obtained are presented in Tables 1 and 2 hereinbelow and are expressed as the percentage inhibition of enzymatic activity produced by […] of the test compound.

[1] abbreviates: 10 μM test compound, PDE2 from bovine endothelial cells.
Setting [2] is: 1 μM cyclic AMP, PDE2 from bovine endothelial cells, read-out: PDE2 IC50.

A word on the IC50: it is the concentration needed to halve the response being measured. In turn, `COc1cc2c(cc1OC)N(C)C(=O)CN=C2c1cccc(C#CCCCC#N)c1` [Compound 6d, 6-[3-(7,8-dimethoxy-1-methyl-2-oxo-2,3-dihydro-1H-1,4-benzodiazepin-5-yl)phenyl]hex-5-ynenitrile] showed an IC50 on PDE2 of 2.4 µM. The “PDE4 percentage inhibition at 10 μM” value with PDE4 worked out at 55.7%.
In the case of `COc1cc2c(cc1OC)N(C)C(=O)CN=C2c1cccc(-c2ccc(Cl)cc2)c1` [Compound 6j, 5-(4′-chloro-1,1′-biphenyl-3-yl)-7,8-dimethoxy-1-methyl-1,3-dihydro-2H-1,4-benzodiazepin-2-one], the IC50 on PDE2 stood at 0.71 µM; against PDE4, 2.8 µM.
One may read the inhibition as the share of the control response that was lost under treatment. Regarding `COc1cc2c(cc1OC)N(C)C(=O)CN=C2c1cccc(-c2ccc(C#N)cc2)c1` [Compound 6m, 3′-(7,8-dimethoxy-1-methyl-2-oxo-2,3-dihydro-1H-1,4-benzodiazepin-5-yl)-1,1′-biphenyl-4-carbonitrile], at PDE2, the inhibition at 10 µM was found to be 82.3%. In addition, in the experiment on PDE4, the “PDE4 percentage inhibition at 10 μM” value turned out to be 37.3%.
The corresponding values for `COc1cc2c(cc1OC)N(C)C(=O)CN=C2c1cccc(-c2ccc(C(N)=O)cc2)c1` [Compound 6n, 3′-(7,8-dimethoxy-1-methyl-2-oxo-2,3-dihydro-1H-1,4-benzodiazepin-5-yl)-1,1′-biphenyl-4-carboxamide] are 84.6% and 58.7%.
On to `CCN1C(=O)C(Cc2ccc(Cl)c(Cl)c2)N=C(c2ccccc2)c2cc(OC)c(OC)cc21` (centres unmarked) [Compound 7a, 3-(3,4-dichlorobenzyl)-1-ethyl-7,8-dimethoxy-5-phenyl-1,3-dihydro-2H-1,4-benzodiazepin-2-one], for which the values for the IC50 at PDE2 and at PDE4 were 3.13 µM and 6.52 µM, respectively.
For the compound `COc1ccc2c(c1)NC(=O)CN=C2c1cccc(C#N)c1` [Compound 28a, 3-(8-methoxy-2-oxo-2,3-dihydro-1H-1,4-benzodiazepin-5-yl)benzonitrile], at PDE2, the midpoint of inhibition, the IC50, lay at 65 µM and the inhibition at 10 µM worked out at 52.5%.
As for `COc1cccc2c1C(c1cccc(C#N)c1)=NCC(=O)N2` [Compound 28b, 3-(6-methoxy-2-oxo-2,3-dihydro-1H-1,4-benzodiazepin-5-yl)benzonitrile], at PDE2, the IC50 was 88 µM and the inhibition at 10 µM came to 34.5%.
`COc1ccc2c(c1)C(c1cccc(C#N)c1)=NCC(=O)N2` [Compound 28c, 3-(7-methoxy-2-oxo-2,3-dihydro-1H-1,4-benzodiazepin-5-yl)benzonitrile]: the inhibition at 10 µM at PDE2 was 46.5%.
In the case of `COc1cccc2c1C(c1ccccc1)=NCC(=O)N2` [Compound 28d, 6-methoxy-5-phenyl-1,3-dihydro-2H-1,4-benzodiazepin-2-one], the inhibition at 10 µM on PDE2 is 4.7%.
Regarding `COc1ccc2c(c1)C(c1ccccc1)=NCC(=O)N2` [Compound 28e, 7-methoxy-5-phenyl-1,3-dihydro-2H-1,4-benzodiazepin-2-one], the inhibition at 10 µM at PDE2 is 8.8%.
The same measure, in the same setting: as for `COc1cc2c(c(Br)c1OC)NC(=O)CN=C2c1ccccc1` [Compound 28f, 9-bromo-7,8-dimethoxy-5-phenyl-1,3-dihydro-2H-1,4-benzodiazepin-2-one], the figure is 13.5%.
At PDE2, `COc1ccc2c(c1)N(C)C(=O)CN=C2c1cccc(C#N)c1` [Compound 29a, 3-(8-methoxy-1-methyl-2-oxo-2,3-dihydro-1H-1,4-benzodiazepin-5-yl)benzonitrile] yielded an IC50 of 35 µM.
The same measure, in the same setting: as for `COC(=O)c1cccc(C2=NCC(=O)N(C)c3cc(OC)c(OC)cc32)c1` [Compound 34a, 3-(7,8-dimethoxy-1-methyl-2-oxo-2,3-dihydro-1H-1,4-benzodiazepin-5-yl)methyl benzoate], the figure is 2.6 µM.
In the case of `COc1cc2c(cc1OC)N(C)C(=O)CN=C2c1cccc(C(=O)O)c1` [Compound 35a, 3-(7,8-dimethoxy-1-methyl-2-oxo-2,3-dihydro-1H-1,4-benzodiazepin-5-yl)benzoic acid], the inhibition at 10 µM at PDE2 (setting [1]) came to 26%.
On to `COc1cc2c(cc1OC)N(C)C(=O)CN=C2c1cccc(C(=O)NC(C)C)c1` [Compound 36a, 3-(7,8-dimethoxy-1-methyl-2-oxo-2,3-dihydro-1H-1,4-benzodiazepin-5-yl)N-isopropylbenzamide], for which the inhibition at 10 µM on PDE2 (setting [1]) amounted to 75.9%.
In the case of `COc1cc2c(cc1OC)N(C)C(=O)CN=C2c1cccc(C(=O)NCc2ccccc2)c1` [Compound 36b, N-benzyl-3-(7,8-dimethoxy-1-methyl-2-oxo-2,3-dihydro-1H-1,4-benzodiazepin-5-yl) benzamide], the IC50 at PDE2 was 3.1 µM.
Turning to `COc1cc2c(cc1OC)N(C)C(=O)CN=C2c1cccc(C(=O)NCCCCCC(N)=O)c1` [Compound 36c, N-(6-amino-6-oxohexyl)-3-(7,8-dimethoxy-1-methyl-2-oxo-2,3-dihydro-1H-1,4-benzodiazepin-5-yl)benzamide], the inhibition at 10 µM on PDE2 is 46%.
For the compound `COc1cc2c(cc1OC)N(C)C(=O)CN=C2c1cccc(C(=O)N(C)C)c1` [Compound 36d, 3-(7,8-dimethoxy-1-methyl-2-oxo-2,3-dihydro-1H-1,4-benzodiazepin-5-yl)-N,N-dimethylbenzamide], at PDE2 (setting [1]), the inhibition at 10 µM was 17%.
Take `COc1cc2c(cc1OC)N(C)C(=O)CN=C2c1cccc(C(=O)N2CCN(Cc3ccccc3)CC2)c1` [Compound 36e, 5-{3-[(4-benzylpyperazin-1-yl)carbonyl]phenyl}7,8-dimethoxy-1-methyl-2-oxo-2,3-dihydro-1H-1,4-benzodiazepin-2-one]: the “PDE2 percentage inhibition at 10 μM” value on PDE2 (setting [1]) came out at 27%.
As to `COc1cc2c(cc1OC)N(C)C(=O)CN=C2c1cccc(C(=O)NCCCc2ccccc2)c1` [Compound 36f, 3-(7,8-dimethoxy-1-methyl-2-oxo-2,3-dihydro-1H-1,4-benzodiazepin-5-yl)-N-(3-phenylpropyl)benzamide], the IC50 against PDE2 stood at 2.8 µM.
On to “Methyl (2E)-3-[5-(cyanophenyl)-7,8-dimethoxy-1-methyl-2-oxo-2,3-dihydro-1H-1,4-benzodiazepin-9-yl)phenyl]acrylate [Compound 25d]”, for which the “PDE2 percentage inhibition at 10 μM” value at PDE2 (setting [1]) is recorded as 2.4%.
On to “Tert-butyl-3-[5-(cyanophenyl)-(7,8-dimethoxy-1-methyl-2-oxo-2,3-dihydro-1H-1,4-benzodiazepin-9-yl)phenyl]prop-2-ynylcarbamate [Compound 25c]”, for which the 50% inhibitory concentration (IC50) at PDE2 (setting [2]) was determined as 3.4 µM.
Turning to “[6-(3-aminoethynyl)-7,8-dimethoxy-1-methyl-2-oxo-2,3-dihydro-1H-1,4-benzodiazepin-5-yl]benzonitrile [Compound 25g]”, the “PDE2 percentage inhibition at 10 μM” value at PDE2 (setting [1]) stood at 14.5%.
Still for that read-out and setting: as for “[9-(3-aminoethynyl)-7,8-dimethoxy-1-methyl-2-oxo-2,3-dihydro-1H-1,4-benzodiazepin-5-yl]benzonitrile [Compound 25f]”, the figure is 0%.
In the case of “tert-butyl-3-[5-(cyanophenyl)-(7,8-dimethoxy-1-methyl-2-oxo-2,3-dihydro-1H-1,4-benzodiazepin-6-yl)phenyl]prop-2-ynylcarbamate [Compound 25e]”, the half-inhibitory concentration (IC50) on PDE2 (setting [2]) turned out to be 5 µM.
